This is an account of results in patent US6540792B1, “Cellulose fiber-containing structure” (priority 1999, dated 2003).

The nature of this series: Inorganic value/organic value ratio calculated by the organic concept (Fujita). As to conditions: concluded from the inorganic value/organic value ratio. The text has this:
The “inorganic value/organic value ratio” in this invention is an indicator contrived by Minoru Fujita, to express the polarity of various organic compounds in view of organic concept [see Revised Edition, Science of Chemical Experiments, Organic Chemistry, Kawade shobo (1971)]. For the ratio, the organic value of one carbon (C) atom is decided as 20, and the inorganic and organic values of various polar groups are decided in reference to it, as shown in Table 1. The inorganic value/organic value ratio refers to the ratio of the sum of inorganic values to the sum of organic values.
According to this organic concept, for example, the inorganic value/organic value ratio of polyethylene terephthalate can be calculated as 0.7. In this invention, attention is paid to the affinity between synthetic fibers and an antimicrobial agent based on the value calculated according to the organic concept, and an antimicrobial agent with the inorganic value/organic value ratio kept in a predetermined range is caused to adhere to or to be exhausted and diffused into the synthetic fibers.
For example, in the case of 2,3,5,6-tetrachloro-4-hydroxypyridine, since it has one benzene nucleus, four —Cl groups, one —OH group and one —NR2 group, the inorganic value is 265. On the other hand, since it has five C (carbon) atoms and four —Cl groups, the organic value is 180. […]

Structures are written as SMILES.

For the molecule `[Na+].[O-][n+]1ccccc1[S-]` [2-pyridylthiol-1-oxide sodium], the affinity to polyesters entry was “poor”.
